Assays:
mouse [1] = conditions: Sub-acute repeat dose toxicity; b6c3f1; Oral; Feed; dose end: 14 day; group: systemic; systemic / in life observation / clinical signs / feces, discoloration
rat [2] = conditions: Carcinogenicity; fischer; Oral; Feed; dose end: 105 week; group: systemic; systemic / in life observation / body weight / body weight + systemic / pathology microscopic / kidney / nephropathy + systemic / pathology …
mouse [3] = conditions: Subchronic oral toxicity in rodents, b6c3f1, Feed, dose end: 13 week, group: systemic
mouse [4] = conditions: Combined chronic toxicity/carcinogenicity; b6c3f1; Oral; Feed; dose end: 104 week; group: systemic; systemic / pathology microscopic / blood / lymphoma malignant + systemic / pathology microscopic / ovary / interstitial stromal tumor + …
mouse [5] = conditions: Carcinogenicity, b6c3f1, Oral, Feed, dose end: 105 week, group: systemic
rat [6] = conditions: Sub-acute repeat dose toxicity; fischer; Oral; Feed; dose end: 14 day; group: systemic; systemic / in life observation / clinical signs / feces, discoloration + systemic / in life observation / food consumption / food …
rat [7] = conditions: Subchronic oral toxicity in rodents, fischer, Feed, dose end: 13 week, group: systemic
rat [8] = conditions: Subchronic oral toxicity in rodents, fischer, Feed, dose end: 13 week, group: systemic; remark: listed apart in the source
mouse [9] = conditions: Subchronic oral toxicity in rodents, b6c3f1, Feed, dose end: 13 week, group: systemic; remark: listed apart in the source
rat [10] = conditions: Combined chronic toxicity/carcinogenicity; fischer; Oral; Feed; dose end: 104 week; group: systemic; systemic / pathology microscopic / adrenal gland / pheochromocytoma benign + systemic / pathology microscopic / adrenal gland / …
rat [11] = conditions: Carcinogenicity; sprague dawley; Oral; Gavage/Intubation; dose end: 105 week; group: systemic; systemic / clinical chemistry / [other] / [other] + systemic / organ weight / liver / relative to body weight + systemic / organ weight / …
rat [12] = conditions: Carcinogenicity, Osborne-Mendel, Oral, Gavage/Intubation, dose end: 104 week, group: systemic
dog [13] = conditions: Chronic toxicity, beagle, Oral, Feed, dose end: 2 year, group: systemic
mouse [14] = conditions: Sub-acute repeat dose toxicity, b6c3f1, Oral, Gavage/Intubation, dose end: 15 day, group: systemic
mouse [15] = conditions: Carcinogenicity, b6c3f1, Oral, Gavage/Intubation, dose end: 103 week, group: systemic
rat [16] = conditions: Subchronic oral toxicity in rodents, fischer, Gavage/Intubation, dose end: 13 week, group: systemic, systemic / pathology gross / spleen / enlarged + systemic / pathology microscopic / kidney / hemosiderosis + systemic / pathology …
mouse [17] = conditions: Subchronic oral toxicity in rodents, b6c3f1, Gavage/Intubation, dose end: 13 week, group: systemic
rat [18] = conditions: Sub-acute repeat dose toxicity, fischer, Oral, Gavage/Intubation, dose end: 14 day, group: systemic
rat [19] = conditions: Carcinogenicity, fischer, Oral, Gavage/Intubation, dose end: 103 week, group: systemic
mouse [20] = conditions: Carcinogenicity; b6c3f1; Oral; Feed; dose end: 104 week; group: systemic; systemic / in life observation / body weight / body weight
rat [21] = conditions: Subchronic oral toxicity in rodents, wistar, Feed, dose end: 3 month, group: systemic
rat [22] = conditions: Prenatal developmental toxicity study, other, Oral, Gavage/Intubation, dose end: 15 GD
rat [23] = conditions: Combined chronic toxicity/carcinogenicity, wistar, Oral, Feed, dose end: 104 week, group: systemic
rat [24] = conditions: Combined chronic toxicity/carcinogenicity, wistar, Oral, Feed, dose end: 104 week, group: systemic; remark: listed apart in the source
rat [25] = conditions: Multigenerational reproductive toxicity study, sprague dawley, Oral, Feed, dose end: 2 generation
primate = conditions: Sub-acute repeat dose toxicity; Oral; Gavage/Intubation; dose end: 28 day; group: systemic; systemic / in life observation / clinical signs / defecation (diarrhea) + systemic / in life observation / food consumption / food …
rat [26] = conditions: Sub-acute repeat dose toxicity, wistar, Oral, Gavage/Intubation, dose end: 28 day
dog [27] = conditions: Sub-acute repeat dose toxicity, beagle, Oral, Gavage/Intubation, dose end: 14 day, group: systemic
[28] = systemic / organ weight / epididymis / nos + systemic / organ weight / liver / absolute + systemic / organ weight / testes / absolute + …
[29] = systemic / organ weight / testes / absolute
[30] = systemic / pathology microscopic / spleen / hematopoietic cell proliferation + systemic / pathology microscopic / testes / degeneration
[31] = systemic / pathology microscopic / spleen / hematopoietic cell proliferation + systemic / pathology microscopic / testes / degeneration + …
[32] = systemic / clinical chemistry / bile acids / bile acids + systemic / in life observation / food consumption / food consumption + systemic / …
[33] = systemic / organ weight / liver / absolute + systemic / organ weight / liver / relative to body weight
[34] = systemic / organ weight / epididymis / absolute + systemic / organ weight / testes / absolute + systemic / organ weight / testes / relative …
[35] = systemic / pathology microscopic / liver / carcinoma + systemic / pathology microscopic / liver / neoplastic nodule + systemic / pathology …
[36] = systemic / pathology microscopic / thyroid gland / adenoma
[37] = systemic / clinical chemistry / bilirubin / total bilirubin + systemic / hematology / anisocytosis / anisocytosis + systemic / hematology / …
[38] = systemic / clinical chemistry / glucose / glucose
[39] = systemic / pathology gross / spleen / enlarged
[40] = systemic / pathology gross / spleen / enlarged + systemic / pathology microscopic / spleen / congestion + systemic / pathology microscopic…
[41] = systemic / pathology microscopic / stomach / hyperplasia
[42] = systemic / pathology microscopic / stomach / squamous cell papilloma + systemic / pathology microscopic / stomach / hyperplasia
[43] = systemic / in life observation / body weight / body weight
[44] = systemic / pathology gross / spleen / enlarged + systemic / pathology microscopic / spleen / hematopoietic cell proliferation + systemic / …
[45] = systemic / pathology microscopic / liver / inflammation + systemic / pathology microscopic / spleen / hematopoietic cell proliferation + …
[46] = systemic / pathology microscopic / spleen / hematopoietic cell proliferation + systemic / pathology microscopic / spleen / hemosiderosis
[47] = systemic / clinical chemistry / [other] / [other] + systemic / in life observation / body weight / body weight gain
[48] = systemic / organ weight / kidney / absolute + systemic / organ weight / kidney / relative to body weight + systemic / organ weight / kidney…
[49] = group: developmental, developmental / developmental malformation / bone / full supernumerary + developmental / developmental malformation / general / [other]
[50] = group: maternal, systemic / in life observation / body weight / body weight gain + systemic / in life observation / food consumption / food consumption
[51] = group: maternal, systemic / in life observation / body weight / body weight gain + systemic / in life observation / food consumption / food consumption + …
[52] = systemic / clinical chemistry / alpha-2 globulin / alpha-2 globulin
[53] = systemic / clinical chemistry / alpha-2 globulin / alpha-2 globulin + systemic / hematology / platelet / platelet + systemic / organ weight…
[54] = systemic / hematology / platelet / platelet + systemic / organ weight / liver / relative to body weight + systemic / pathology microscopic…
[55] = systemic / pathology microscopic / adrenal gland / pheochromocytoma benign + systemic / pathology microscopic / adrenal gland / …
[56] = group: offspring, developmental / offspring survival late / viability index / viability index + systemic / in life observation / body weight / offspring (pup…
[57] = group: parental, systemic / clinical chemistry / alpha-2 globulin / alpha-2 globulin + systemic / organ weight / kidney / absolute + systemic / organ weight…
[58] = group: systemic, systemic / hematology / polychromasia / polychromasia + systemic / in life observation / body weight / body weight + systemic / in life …
[59] = group: systemic, systemic / pathology microscopic / ovary / degeneration
[60] = systemic / in life observation / body weight / body weight + systemic / in life observation / clinical signs / salivation + systemic / in …
[61] = systemic / in life observation / body weight / body weight + systemic / pathology microscopic / kidney / vacuolization cytoplasmic + …

## O=C1OC(c2ccc(O)cc2)(c2ccc(O)cc2)c2ccccc21 [Phenolphthalein]
Mouse [1]
  LEL: 15000 mg/kg/day
  LOAEL: > 15000 mg/kg/day
  NEL: 7500 mg/kg/day
  NOAEL: ≥ 15000 mg/kg/day
Rat [2]
  LEL: 500 mg/kg/day
  LOAEL: 500 mg/kg/day
  NEL: < 500 mg/kg/day
  NOAEL: < 500 mg/kg/day
Mouse [3]; [28]
  LOAEL: > 9140 mg/kg/day
  NOAEL: ≥ 9140 mg/kg/day
Mouse [3]; [29]
  LEL: 509 mg/kg/day
  NEL: < 509 mg/kg/day
Mouse [4]
  LEL: 300 mg/kg/day
  LOAEL: > 1200 mg/kg/day
  NEL: < 300 mg/kg/day
  NOAEL: ≥ 1200 mg/kg/day
Mouse [5]; [30]
  LOAEL: 300 mg/kg/day
  NOAEL: < 300 mg/kg/day
Mouse [5]; [31]
  LEL: 300 mg/kg/day
  NEL: < 300 mg/kg/day
Rat [6]
  LEL: 10500 mg/kg/day
  LOAEL: > 10500 mg/kg/day
  NEL: 4500 mg/kg/day
  NOAEL: ≥ 10500 mg/kg/day
Rat [7]; systemic / clinical chemistry / bile acids / bile acids
  LEL: 383 mg/kg/day
Rat [7]; [32]
  LOAEL: > 3490 mg/kg/day
  NEL: 192 mg/kg/day
  NOAEL: ≥ 3490 mg/kg/day
Rat [8]; [33]
  LOAEL: > 3500 mg/kg/day
  NEL: 400 mg/kg/day
  NOAEL: ≥ 3500 mg/kg/day
Rat [8]; systemic / organ weight / liver / relative to body weight
  LEL: 800 mg/kg/day
Mouse [9]; [34]
  LOAEL: 2000 mg/kg/day
  NOAEL: 1000 mg/kg/day
Mouse [9]; [29]
  LEL: 500 mg/kg/day
  NEL: < 500 mg/kg/day
Rat [10]
  LEL: 500 mg/kg/day
  LOAEL: > 2000 mg/kg/day
  NEL: < 500 mg/kg/day
  NOAEL: ≥ 2000 mg/kg/day

## Clc1cc2c(cc1Cl)Oc1cc(Cl)c(Cl)cc1O2 [2,3,7,8-Tetrachlorodibenzo-p-dioxin]
Rat [11]
  LEL: 3e-06 mg/kg/day
  LOAEL: > 0.0001 mg/kg/day
  NEL: < 3e-06 mg/kg/day
  NOAEL: ≥ 0.0001 mg/kg/day
Rat [12]; [35]
  LOAEL: > 0.0005 mg/kg/day
  NOAEL: ≥ 0.0005 mg/kg/day
Rat [12]; [36]
  LEL: 1e-05 mg/kg/day
  NEL: < 1e-05 mg/kg/day

## CC(O)CO (stereo unspecified) [1,2-Propylene glycol]
Dog [13]; [37]
  LOAEL: > 5000 mg/kg/day
  NOAEL: ≥ 5000 mg/kg/day
Dog [13]; [38]
  LEL: 2000 mg/kg/day
  NEL: < 2000 mg/kg/day

## CN(C)c1ccccc1 [N,N-Dimethylaniline]
Mouse [14]; [39]
  LEL: 188 mg/kg/day
Mouse [14]; [40]
  LOAEL: 375 mg/kg/day
  NEL: 94 mg/kg/day
  NOAEL: 188 mg/kg/day
Mouse [15]; [41]
  LEL: 15 mg/kg/day
  NEL: < 15 mg/kg/day
Mouse [15]; [42]
  LOAEL: > 30 mg/kg/day
  NOAEL: ≥ 30 mg/kg/day
Rat [16]
  LEL: 31 mg/kg/day
  LOAEL: 31 mg/kg/day
  NEL: < 31 mg/kg/day
  NOAEL: < 31 mg/kg/day
Mouse [17]; [43]
  LEL: 31 mg/kg/day
  NEL: < 31 mg/kg/day
Mouse [17]; [44]
  LOAEL: 62 mg/kg/day
  NOAEL: 31 mg/kg/day
Rat [18]; [39]
  LEL: 94 mg/kg/day
  NEL: < 94 mg/kg/day
Rat [18]; [44]
  LOAEL: 375 mg/kg/day
  NOAEL: 188 mg/kg/day
Rat [19]; [45]
  LOAEL: 30 mg/kg/day
  NOAEL: 3 mg/kg/day
Rat [19]; [46]
  LEL: 3 mg/kg/day
  NEL: < 3 mg/kg/day

## O=C1OC(=O)c2ccccc21 [Phthalic anhydride]
Mouse [20]
  LEL: 1800 mg/kg/day
  LOAEL: 1800 mg/kg/day
  NEL: < 1800 mg/kg/day
  NOAEL: < 1800 mg/kg/day

## ClC1C(Cl)C(Cl)C(Cl)C(Cl)C1Cl (stereo unspecified) [Lindane]
Rat [21]; [47]
  LEL: 0.01 mg/kg/day
  NEL: < 0.01 mg/kg/day
Rat [21]; [48]
  LOAEL: 1 mg/kg/day
  NOAEL: 0.2 mg/kg/day
Rat [22]; [49]
  LEL: 20 mg/kg/day
  LOAEL: 20 mg/kg/day
  NEL: 10 mg/kg/day
  NOAEL: 10 mg/kg/day
Rat [22]; [50]
  LEL: 10 mg/kg/day
  LOAEL: 10 mg/kg/day
Rat [22]; [51]
  NEL: 5 mg/kg/day
  NOAEL: 5 mg/kg/day
Rat [23]; [52]
  LEL: 0.05 mg/kg/day
  NEL: < 0.05 mg/kg/day
Rat [23]; [53]
  LOAEL: 4.81 mg/kg/day
  NOAEL: 0.47 mg/kg/day
Rat [24]; [54]
  LOAEL: 4.81 mg/kg/day
  NOAEL: 0.47 mg/kg/day
Rat [24]; [55]
  LEL: 0.05 mg/kg/day
  NEL: < 0.05 mg/kg/day
Rat [25]; [56]
  LEL: 13.1 mg/kg/day
  LOAEL: 13.1 mg/kg/day
  NEL: 1.71 mg/kg/day
  NOAEL: 1.71 mg/kg/day
Rat [25]; group: parental, systemic / clinical chemistry / alpha-2 globulin / alpha-2 globulin
  LOAEL: 1.71 mg/kg/day
Rat [25]; [57]
  LEL: 1.71 mg/kg/day
  NEL: 0.0865 mg/kg/day
  NOAEL: 0.0865 mg/kg/day

## O=c1[nH]c2ccc(S(=O)CCN3CCC(Cc4ccc(F)cc4)CC3)cc2o1 (stereo unspecified) [Besonprodil]
primate
  LEL: 25 mg/kg/day
  LOAEL: > 500 mg/kg/day
  NEL: < 25 mg/kg/day
  NOAEL: ≥ 500 mg/kg/day
Rat [26]; group: maternal, reproductive / reproductive performance / estrous cycle / absent corpora lutea
  LEL: 200 mg/kg/day
Rat [26]; [58]
  LOAEL: > 300 mg/kg/day
  NOAEL: ≥ 300 mg/kg/day
Rat [26]; [59]
  LEL: 25 mg/kg/day
  NEL: < 25 mg/kg/day
Dog [27]; [60]
  LEL: 30 mg/kg/day
  NEL: < 30 mg/kg/day
Dog [27]; [61]
  LOAEL: > 300 mg/kg/day
  NOAEL: ≥ 300 mg/kg/day
